These results are taken from patent US20190337978A1, “CRYSTALLIZATION METHODS USING FUNCTIONALIZED NANOPOROUS MATRICES AND RELATED SYSTEMS” (Massachusetts Institute of Technology, priority 2018, published 2019).

The nature of data set [1]: Batch crystallization with Zorbax, mother liquor concentration via HPLC. It is filed as physicochemical. Particulars: after batch crystallization of saturated isopropyl alcohol solution with Zorbax, stirred 6 h at 25° C.; effective solubility.
Data set [2] is described as follows: physchem. The conditions noted are these: 25 °C, thermodynamic from solid.
Data set [3] in a line: Capillary XRPD with Zorbax, critical minimum concentration for crystallization. The conditions noted are these: isopropyl alcohol solutions in capillaries containing functionalized Zorbax.
Description: In order to test this hypothesis, solutions of successively lower concentrations were loaded into capillaries containing the functionalized Zorbax® and tested for the presence of crystals. […] The tubes were made of glass #50, with a 1.0 mm OD, wall thickness of 0.01 mm and length of 80 mm. The capillary tubes were packed with Zorbax® or CPG material by scooping powder into the tip, placing the capillary in a larger diameter glass pipette, and tapping to allow gravity to act on the powder to settle. Once packed, the tubes were suctioned at the open end with a 1-mL plastic syringe, using a small piece of rubber tubing to adapt the fit. The filled capillary was then immediately dipped into the undersaturated API solutions to allow the solution to fill the tube. Molten wax was used to plug the end of the capillary, and the tip was then heated in a Bunsen burner flame to seal. Additional capillaries were filled with the API solution and dry commercial API alone.
To check the hypothesis that there exists a critical minimum undersaturation below which the Zorbax® cannot induce crystallization, solutions of successively decreasing concentrations were tested with the capillary method.

≈ marks a conversion by molar mass, not a printed value. Structures can show the parent of a compound that is named as a salt.

Consider `NC(=O)c1cccnc1` [Nicotinamide], for which the Mother liquor concentration in data set [1] worked out at 33.2 mg/mL. In data set [2] (organic solvent or mixture), the solubility (usually how much of the substance goes into solution per volume) amounted to 46.5 mg/mL (≈ 381 mM). The “Concentration range from XRPD (critical minimum concentration for crystallization to occur)” value (“Concentration range from XRPD” below) in data set [3] was in the range of 30000 to 35000 µg/mL.

For the compound `CN(C)CCOC(c1ccccc1)c1ccccc1` [Diphenhydramine hydrochloride], the “Concentration range from XRPD” value in data set [3] lay in the range of 25000 to 27000 µg/mL.

In data set [2] (water), `CC(=O)Nc1ccc(O)cc1` [Acetaminophen] had a solubility of 15.5 mg/mL (≈ 103 mM).

`CC(=O)Oc1ccccc1C(=O)O` [Aspirin] returned a Mother liquor concentration in data set [1] of 66.8 mg/mL. In addition, the solubility in data set [2] (organic solvent or mixture) was 90 mg/mL (≈ 500 mM). In data set [3], the “Concentration range from XRPD” value was 65000 to 70000 µg/mL.
